Data set [1] relates to P. falciparum (Pf) 3D7 parasites. The data set is described as follows: P. falciparum LDH viability assay. It is filed as cell-based. The settings on record: for EC50: Plasmodium falciparum, 3D7, 72 h, LDH activity, 72 h at 37 °C, mean and SD of 3 independent experiments. How it is done: P. falciparum LDH Viability Assay. P. falciparum LDH viability assays were performed as previously described.[40] Briefly, a ten‐point 1 : 3‐fold dilution series of the compounds were pre‐dispensed in 384‐well assay plates (Grenier), and RPMI/AlbuMAX growth media inoculated with synchronized ring stage P. falciparum parasites. 10 mM compound stocks were transferred into the assay plates such that the starting concentration was 10 μM. Plates were incubated for 72 h and then frozen at −80 °C overnight. Lactate dehydrogenase (LDH) activity was quantified with APAD by measuring absorbance of NBT at 650 nm. Data were normalized to percent growth inhibition using the positive control of 0.1 % DMSO alone and the negative control of 100 nM chloroquine. Half‐maximal effective concentration (EC50) values were calculated by GraphPad Prism (8.0.2) software using a nonlinear regression four‐parameter fit analysis using a sigmoidal dose response (variable slope).

A further data set in a line: in vitro. It is filed as cell-based. The settings on record: human. How it is done:
HepG2 Cytotoxicity Assay. HepG2 cytotoxicity assays were performed as previously described.[41] Briefly, human hepatocyte HepG2 cells were cultured in DMEM supplemented with 10 % FCS at 37 °C and 5 % CO2 in a humidified incubator. Cells were seeded at 1000 cells/well in 50 μL in 384‐well plates (Grenier) and compounds incubated in ten‐point 1 : 2‐fold dilution series for 48 h. Cytotoxicity was determined using Cell Titer‐Glo (Promega), normalized to DMSO alone controls (100 % viability) and control compound Bortezomib (0 % viability at 10 μM). CC50 values were calculated by GraphPad Prism (8.0.2) software using a nonlinear regression four‐parameter fit analysis with the sigmoidal dose response (variable slope).

A further data set has as its target T1, recombinant Pv PMV (Plasmodium vivax, UniProt A5K302).
T1 construct: made in house
The data set is described as follows: PMV FRET protease assay. It counts as biochemical. How it is done: FRET Protease Assays. FRET protease assays were performed as previously described.[19, 20, 27, 28] Briefly, ten‐point 1 : 3‐fold dilution series of the compounds were prepared in 384‐well black low volume assay plates (Greiner) using an Echo555 (Labcyte). 10 mM compound stocks were transferred into assay plates such that the starting concentration was 90 μM (Pv PMV assays), 11.25 μM (renin, cathepsin D and BACE‐1 assays) or 100 nM and 10 μM (Pf PMX and Pf PMIX assays). All wells were backfilled to 200 nL DMSO such that the DMSO concentration remained constant across the assay plates (1 % final). All compound potency assays were conducted in 20 μL total volume. For each assay, 10 μL of recombinant enzymes in respective assay buffers (Table S2) were dispensed into compound containing assay plates using a Multidrop‐Combi dispenser and allowed to incubate for 15 min. Recombinant Pf PMX, Pf PMIX and Pv PMV were expressed as previously described,[23, 27, 28] and recombinant human aspartyl proteases were purchased commercially. 10 μL of the fluorogenic peptide substrates incubated at 37 °C for the duration and conditions noted in Table S2. Samples were excited at 340 nm and fluorescence emission measured at 492 nm using an Envision fluorescence plate reader (Perkin‐Elmer). The 0 % inhibition control contained DMSO alone (1 % final) and the 100 % inhibition control was in the absence of enzyme. Half‐maximal inhibitory concentration (IC50) values were calculated by GraphPad Prism (8.0.2) software using a nonlinear regression four‐parameter fit analysis using a sigmoidal dose response (variable slope).
Table S2 . P rotease FRET assay conditions.
PMX as sa y PMIX PM V assay Renin assay Cathepsin D assay BA CE-1 assay E nzy me prot e as e 0.25 nM pro te a se 6 nM prot e as e q ua nti ty 0.1 nM pro t ea se 1.5 nM pro t ea se 2.5 nM pro t ea se 3 nM (Pro te os #R-001) ( Athe ns Re sea rc h (Sigma #S4195) […]
25mM so di um acetate, 100 mM 25 mM M E S, 25 m M 50 mM Tr is, 100 mM 100 mM so di u m 20 mM so dium Buffer acetate, 0.005% sodium chloride and Tris-HCl, 0.01% N aC l, 0. 1% Bri j-35, acetate 0.02% scetate, 0.05% […]
Sub str at e DABCYL- ( DA BC YL ) - DABCYL- DABCYL-(γ- Ab u) - E[E(EDANS)]KPIL […]

Data set [2] concerns SERA5 processing by SUB1, indicative of upstream activity by PMX. The data set is described as follows: SERA5 processing inhibition assay in parasites (western blot, anti-SERA5). The settings on record: 38 at 10 μM. It is filed as cell-based, P. falciparum. The text has this:
PMX and PMIX ligand cleavage in P. falciparum parasites. It was next determined whether 38 could inhibit PMX and PMIX processing of known invasion and egress ligands in P. falciparum parasites. […] SERA5 is not a direct substrate of PMX, but is processed by SUB1 which itself is activated by PMX. The degree of downstream processing of SERA5 by SUB1 is indicative of PMX activity.
In this experiment, synchronized late trophozoite/early schizont stage parasites, expressing HA‐tagged ASP, were incubated with 38 (10 μM), the positive control WM382 (1) (2.5 nM) (a dual potent inhibitor of PMIX and PMX) and the DMSO vehicle control. Parasites from each treatment condition were then lysed and the processing of the known PMX and PMIX substrates were detected by western blot as a corollary of protease activity.
P. falciparum ASP and SERA5 Processing Inhibition Assay. P. falciparum substrate processing inhibition assays were performed as previously described.[28] Synchronized ring stage cultures were treated with test compounds 38 (10 μM) and WM382 (2.5 nM)[28] or DMSO as a vehicle control. […] HA‐tagged apical sushi protein (ASP) was detected in the merozoite fraction with anti‐HA mAb and SERA5 was detected in the supernatant fraction with an anti‐SERA5 polyclonal Ab. […]

A further data set has as its system PMX. The settings on record: cited from earlier work.
The subject of the next data set is PMIX. Further details: method as in PMID 29074775, PMID 32109369, PMID 23260352, PMID 29519896. The settings on record: Figure 1, described in literature; cited from earlier work.

Where a name gives a salt, the structure may show the parent alone.

The source of these data is article PMC9804387, “Substrate Peptidomimetic Inhibitors of P. falciparum Plasmepsin X with Potent Antimalarial Activity” (Chemmedchem, 2022).

T1 sequence (A5K302 35-536): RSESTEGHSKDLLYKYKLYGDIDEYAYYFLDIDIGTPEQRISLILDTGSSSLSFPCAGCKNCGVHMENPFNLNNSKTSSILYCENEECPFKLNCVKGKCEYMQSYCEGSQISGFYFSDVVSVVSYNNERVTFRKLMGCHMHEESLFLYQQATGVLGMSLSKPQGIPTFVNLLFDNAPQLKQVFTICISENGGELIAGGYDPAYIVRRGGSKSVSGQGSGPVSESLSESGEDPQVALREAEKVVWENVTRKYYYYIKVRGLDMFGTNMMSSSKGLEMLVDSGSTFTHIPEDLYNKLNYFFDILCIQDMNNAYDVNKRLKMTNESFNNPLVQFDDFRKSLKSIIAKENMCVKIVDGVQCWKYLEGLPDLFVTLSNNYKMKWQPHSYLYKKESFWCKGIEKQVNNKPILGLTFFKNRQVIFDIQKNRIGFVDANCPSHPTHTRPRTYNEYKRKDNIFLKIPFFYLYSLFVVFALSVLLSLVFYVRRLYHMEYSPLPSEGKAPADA

As usually defined, the EC50 is the concentration needed to bring the measured effect to its halfway point. As usually defined, the CC50 is the concentration that lowers cell viability or growth by half. Low values mean harm at low concentration, high ones better tolerance by the cells. By IC50 is commonly meant the concentration at which inhibition is half-maximal. With `C[C@@H](NC[C@@H](O)[C@H](Cc1ccccc1)NC(=O)[C@H](CO)NC(=O)OCc1ccccc1)c1ccccc1` [Compd 38, Cbz‐Ser‐Phe‐HEA‐Bn(CH3)⋅TFA], in data set [1] (Pf 3D7 EC50 versus PMX IC50), the “fold decrease in parasite activity compared to PMX inhibition” value came out at 2 fold. Also, the EC50 in data set [1] is 90 nM. The compound also had a CC50 at 48 h in “in vitro” above 40000 nM. In addition, the IC50 at recombinant Pv PMV was above 90000 nM. For the same compound, the “SERA5 processing (western blot)” value in data set [2] is recorded as “complete inhibition of SERA5 processing”.

As for `C[C@@H](NC[C@@H](O)[C@H](Cc1ccccc1)NC(=O)c1ccc(C(=O)N2CCN(C)CC2)cc1)c1ccccc1` [Compd 2, reference compound], it took 1 nM to reach a half-maximal effect in data set [1] (EC50). Besides, the IC50 was above 90000 nM on recombinant Pv PMV; 1.4 nM with PMX (Figure 1, described in literature); 650 nM in the data set on PMIX. In the data set on PMX, the “selectivity for PMX compared to PMIX” value was above 500 fold.
